# Target: T1, ITK (Homo sapiens, UniProt Q08881)
# T1 construct: purchased Invitrogen PV3875
# T1 sequence (Q08881 1-620): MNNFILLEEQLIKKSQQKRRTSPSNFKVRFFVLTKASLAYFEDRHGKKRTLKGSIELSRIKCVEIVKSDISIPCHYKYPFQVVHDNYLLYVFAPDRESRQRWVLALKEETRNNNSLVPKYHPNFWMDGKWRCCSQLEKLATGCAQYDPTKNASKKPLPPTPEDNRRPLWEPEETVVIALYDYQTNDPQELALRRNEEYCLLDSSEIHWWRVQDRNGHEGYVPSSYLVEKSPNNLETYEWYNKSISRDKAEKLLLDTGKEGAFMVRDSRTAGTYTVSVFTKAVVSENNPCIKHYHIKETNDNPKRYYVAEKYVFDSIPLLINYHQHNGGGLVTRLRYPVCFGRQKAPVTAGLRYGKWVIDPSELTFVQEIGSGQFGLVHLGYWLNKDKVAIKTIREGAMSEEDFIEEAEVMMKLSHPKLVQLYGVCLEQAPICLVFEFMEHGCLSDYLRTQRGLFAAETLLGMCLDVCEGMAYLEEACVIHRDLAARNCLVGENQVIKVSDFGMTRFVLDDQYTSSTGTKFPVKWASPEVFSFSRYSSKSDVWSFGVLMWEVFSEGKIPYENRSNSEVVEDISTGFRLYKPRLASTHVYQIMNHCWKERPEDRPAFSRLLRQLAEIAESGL
# Experiment: ITK enzyme assay (Caliper or LCMS peptide phosphorylation)
# Format: biochemical
# Settings: purified ITK (Invitrogen PV3875), 20 μM ATP, Ki by Morrison's quadratic equation
# Procedure: The ability of purified ITK (Invitrogen PV3875) to catalyze peptide phosphorylation is monitored using a Caliper LabChip 3000 microfluidic unit (Caliper assay) or by liquid chromatography-mass spectrometry (LCMS) using a Waters Acquity system (LCMS assay). […] Reactions are quenched by the addition of 2,2′,2″,2′″-(ethane-1,2-diyldinitrilo)tetraacetic acid (50 mM final). Non-phosphorylated substrate and phosphorylated product peptides are separated and quantified using a Caliper LabChip 3000 instrument. […] Reactions are quenched by the addition of trichloroacetic acid (5% v/v final). Non-phosphorylated substrate and phosphorylated product peptides are separated by ultra performance LC and detected by a coupled triple quadrupole MS device applying multiple reaction monitoring (MRM) for quantification. The area of the MRM-extracted mass signal is used to assess the inhibition by test compounds. Equilibrium dissociation constant (Ki) values for ITK inhibitors are calculated from plots of activity vs. inhibitor concentration using Morrison's quadratic equation that accounts for the potential of tight binding, and by also applying the conversion factor that accounts for competitive inhibition and the concentration of ATP used in the assay relative to its apparent Michaelis constant (Km,app).
row,Ki [nM],Structure (SMILES)
1,22,"CN(C)CCC(c1ccccc1)n1cc(NC(=O)c2n[nH]c3c2C2CC2CC3)cn1 (single isomer, unassigned) [Example 26c, N-(1-(3-(dimethylamino)-1-phenylpropyl)-1H-pyrazol-4-yl)-3,4,5,5a,6,6a-hexahydrocyclopropa[e]indazole-1-carboxamide]"
2,780,"CN(C)CCC(c1ccccc1)n1cc(NC(=O)c2n[nH]c3c2C2CC2CC3)cn1 (single isomer, unassigned) [Example 26d, N-(1-(3-(dimethylamino)-1-phenylpropyl)-1H-pyrazol-4-yl)-3,4,5,5a,6,6a-hexahydrocyclopropa[e]indazole-1-carboxamide]"
3,30,"Cn1cc(C(c2ccccc2)n2cc(NC(=O)c3n[nH]c4c3CC3CC3C4)cn2)cn1 (single isomer, unassigned) [Example 27a, N-(1-((1-methyl-1H-pyrazol-4-yl)(phenyl)methyl)-1H-pyrazol-4-yl)-1,4,4a,5,5a,6-hexahydro cyclopropa[f]indazole-3-carboxamide]"
4,11,"Cn1cc(C(c2ccccc2)n2cc(NC(=O)c3n[nH]c4c3CC3CC3C4)cn2)cn1 (single isomer, unassigned) [Example 27b, N-(1-((1-methyl-1H-pyrazol-4-yl)(phenyl)methyl)-1H-pyrazol-4-yl)-1,4,4a,5,5a,6-hexahydro cyclopropa[f]indazole-3-carboxamide]"
5,45,"Cn1cc(C(c2ccccc2)n2cc(NC(=O)c3n[nH]c4c3CC3CC3C4)cn2)cn1 (single isomer, unassigned) [Example 27c, N-(1-((1-methyl-1H-pyrazol-4-yl)(phenyl)methyl)-1H-pyrazol-4-yl)-1,4,4a,5,5a,6-hexahydro cyclopropa[f]indazole-3-carboxamide]"
6,96,"Cn1cc(C(c2ccccc2)n2cc(NC(=O)c3n[nH]c4c3CC3CC3C4)cn2)cn1 (single isomer, unassigned) [Example 27d, N-(1-((1-methyl-1H-pyrazol-4-yl)(phenyl)methyl)-1H-pyrazol-4-yl)-1,4,4a,5,5a,6-hexahydro cyclopropa[f]indazole-3-carboxamide]"
7,16,"CN(C)CCC(c1ccccc1)n1cc(NC(=O)c2n[nH]c3c2CC2CC2C3)cn1 (single isomer, unassigned) [Example 28a, N-(1-(3-(dimethylamino)-1-phenylpropyl)-1H-pyrazol-4-yl)-1,4,4a,5,5a,6-hexahydrocyclopropa[f]indazole-3-carboxamide]"
8,6,"CN(C)CCC(c1ccccc1)n1cc(NC(=O)c2n[nH]c3c2CC2CC2C3)cn1 (single isomer, unassigned) [Example 28b, N-(1-(3-(dimethylamino)-1-phenylpropyl)-1H-pyrazol-4-yl)-1,4,4a,5,5a,6-hexahydrocyclopropa[f]indazole-3-carboxamide]"
9,155,"CN(C)CCC(c1ccccc1)n1cc(NC(=O)c2n[nH]c3c2CC2CC2C3)cn1 (single isomer, unassigned) [Example 28c, N-(1-(3-(dimethylamino)-1-phenylpropyl)-1H-pyrazol-4-yl)-1,4,4a,5,5a,6-hexahydrocyclopropa[f]indazole-3-carboxamide]"
10,98,"CN(C)CCC(c1ccccc1)n1cc(NC(=O)c2n[nH]c3c2CC2CC2C3)cn1 (single isomer, unassigned) [Example 28d, N-(1-(3-(dimethylamino)-1-phenylpropyl)-1H-pyrazol-4-yl)-1,4,4a,5,5a,6-hexahydrocyclopropa[f]indazole-3-carboxamide]"
11,2,"CN(C)CCC(c1cccc(C(F)(F)F)c1)n1cc(NC(=O)c2n[nH]c3c2CCC(C)(C)C3)cn1 (single isomer, unassigned) [Example 30a, N-(1-(3-(dimethylamino)-1-(3-(trifluoromethyl)phenyl)propyl)-1H-pyrazol-4-yl)-6,6-dimethyl-4,5,6,7-tetrahydro-1H-indazole-3-carboxamide]"
12,4,"CN(C)CCC(c1cccc(C(F)(F)F)c1)n1cc(NC(=O)c2n[nH]c3c2CCC(C)(C)C3)cn1 (single isomer, unassigned) [Example 30b, N-(1-(3-(dimethylamino)-1-(3-(trifluoromethyl)phenyl)propyl)-1H-pyrazol-4-yl)-6,6-dimethyl-4,5,6,7-tetrahydro-1H-indazole-3-carboxamide]"
13,3,"CC1(C)CCc2c(C(=O)Nc3cnn(C(c4ccccc4)C4CNC4)c3)n[nH]c2C1 (single isomer, unassigned) [Example 34a, N-(1-(azetidin-3-yl(phenyl)methyl)-1H-pyrazol-4-yl)-6,6-dimethyl-4,5,6,7-tetrahydro-1H-indazole-3-carboxamide]"
14,0.7,"CC1(C)CCc2c(C(=O)Nc3cnn(C(c4ccccc4)C4CNC4)c3)n[nH]c2C1 (single isomer, unassigned) [Example 34b, N-(1-(azetidin-3-yl(phenyl)methyl)-1H-pyrazol-4-yl)-6,6-dimethyl-4,5,6,7-tetrahydro-1H-indazole-3-carboxamide]"
15,13,"Cn1cc(C(c2ccccc2)n2cc(NC(=O)c3n[nH]c4c3C3CC3CC4)cn2)cn1 (single isomer, unassigned) [Example 35a, N-(1-((1-methyl-1H-pyrazol-4-yl)(phenyl)methyl)-1H-pyrazol-4-yl)-3,4,5,5a,6,6a-hexahydro cyclopropa[e]indazole-1-carboxamide]"
16,2,"Cn1cc(C(c2ccccc2)n2cc(NC(=O)c3n[nH]c4c3C3CC3CC4)cn2)cn1 (single isomer, unassigned) [Example 35b, N-(1-((1-methyl-1H-pyrazol-4-yl)(phenyl)methyl)-1H-pyrazol-4-yl)-3,4,5,5a,6,6a-hexahydro cyclopropa[e]indazole-1-carboxamide]"
17,220,"Cn1cc(C(c2ccccc2)n2cc(NC(=O)c3n[nH]c4c3C3CC3CC4)cn2)cn1 (single isomer, unassigned) [Example 35c, N-(1-((1-methyl-1H-pyrazol-4-yl)(phenyl)methyl)-1H-pyrazol-4-yl)-3,4,5,5a,6,6a-hexahydro cyclopropa[e]indazole-1-carboxamide]"
18,190,"Cn1cc(C(c2ccccc2)n2cc(NC(=O)c3n[nH]c4c3C3CC3CC4)cn2)cn1 (single isomer, unassigned) [Example 35d, N-(1-((1-methyl-1H-pyrazol-4-yl)(phenyl)methyl)-1H-pyrazol-4-yl)-3,4,5,5a,6,6a-hexahydro cyclopropa[e]indazole-1-carboxamide]"
19,14,"CC(=O)N1CC(C(c2ccccc2)n2cc(NC(=O)c3n[nH]c4c3CCC(C)(C)C4)cn2)C1 (single isomer, unassigned) [Example 37a, N-(1-((1-acetylazetidin-3-yl)(phenyl)methyl)-1H-pyrazol-4-yl)-6,6-dimethyl-4,5,6,7-tetrahydro-1H-indazole-3-carboxamide]"
20,2,"CC(=O)N1CC(C(c2ccccc2)n2cc(NC(=O)c3n[nH]c4c3CCC(C)(C)C4)cn2)C1 (single isomer, unassigned) [Example 37b, N-(1-((1-acetylazetidin-3-yl)(phenyl)methyl)-1H-pyrazol-4-yl)-6,6-dimethyl-4,5,6,7-tetrahydro-1H-indazole-3-carboxamide]"
21,4,"CN1CC(C(c2ccccc2)n2cc(NC(=O)c3n[nH]c4c3CCC(C)(C)C4)cn2)C1 (single isomer, unassigned) [Example 38a, 6,6-dimethyl-N-(1-((1-methylazetidin-3-yl)(phenyl)methyl)-1H-pyrazol-4-yl)-4,5,6,7-tetrahydro-1H-indazole-3-carboxamide]"
22,0.5,"CN1CC(C(c2ccccc2)n2cc(NC(=O)c3n[nH]c4c3CCC(C)(C)C4)cn2)C1 (single isomer, unassigned) [Example 38b, 6,6-dimethyl-N-(1-((1-methylazetidin-3-yl)(phenyl)methyl)-1H-pyrazol-4-yl)-4,5,6,7-tetrahydro-1H-indazole-3-carboxamide]"
23,0.7,"CNCCC(c1ccccc1)n1cc(NC(=O)c2n[nH]c3c2CCC(C)(C)C3)cn1 (single isomer, unassigned) [Example 39a, 6,6-dimethyl-N-(1-(3-(methylamino)-1-phenylpropyl)-1H-pyrazol-4-yl)-4,5,6,7-tetrahydro-1H-indazole-3-carboxamide]"
24,6,"CNCCC(c1ccccc1)n1cc(NC(=O)c2n[nH]c3c2CCC(C)(C)C3)cn1 (single isomer, unassigned) [Example 39b, 6,6-dimethyl-N-(1-(3-(methylamino)-1-phenylpropyl)-1H-pyrazol-4-yl)-4,5,6,7-tetrahydro-1H-indazole-3-carboxamide]"
